In patent US12319695B2, “Sulfonamide derivative with fused pyrimidine skeleton, having epidermal growth factor receptor mutation inhibitory effect” (HANMI PHARM. CO., LTD., priority 2018, dated 2025) one finds GI50 data, which are given here for 28 compounds.

The assay deals with Ba/F3 EGFR del19/T790M/C797S cells. The assay is described as follows: Ba/F3 EGFR del19/T790M/C797S cell growth inhibition test (CellTiter-Glo, 72 hours).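 Note: compounds tested in tenfold steps from 10 µM down to 0.1 nM, with luminescence read on a microplate reader.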 Conditions: Ba/F3 cell line overexpressing EGFR del19/T790M/C797S, 72 hours, CellTiter-Glo; read-out: Ba/F3 EGFR del19/T790M/C797S cells, GI50. Type of assay: cell-based. (In general: In ATP-based viability assays light output follows the ATP content of the culture.)

Method: Specifically, the cell line stored in a liquid nitrogen tank was taken out, rapidly dissolved at 37° C., and thereafter centrifuged to remove the cryopreservation medium. The recovered cell pellets were well mixed in a culture medium, put into a culture flask, and passaged under conditions of 37° C. and 5% carbon dioxide to stabilize the cells to the logarithmic growth phase. Thereafter, cells were taken from the flask, centrifuged to remove the culture medium, washed with Dulbecco's phosphate buffered saline (DPBS), and then centrifuged again to remove DPBS, and then diluted with a culture medium to have 1×10^5 cells/ml. The diluted cells were dispensed into a 96-well plate at 100 μl per well. […] The DMSO solution containing each compound was diluted with a culture medium to a concentration of 30 μM, and then tenfold serial dilution was used to prepare a solution diluted upto 0.3 nM (in order to reach a final DMSO concentration of 1% or less).
50 μl of a test solution of each compound was added each time to the 96-well plate in which the cells were dispensed, thus reaching a final concentration of 10 μM to 0.1 nM in 150 μl per well. The cells treated with the test solution were cultured under conditions of 37° C. and 5% carbon dioxide for 72 hours. After the 96-well plate in which the cells were cultured was acclimated to room temperature for 30 minutes, CellTiter-Glo® Luminescent Cell Assay Reagent (CTG, Promega) was dispensed at 50 μl per well. After stabilizing luminescence signals for 10 minutes, the luminescence intensity was measured with a microplate reader.
The GI50 value of each compound was calculated using nonlinear regression of GraphPad Prism; log[inhibitor] vs. normalized response analysis.

With `CCN1CCN(c2ccc(Nc3nc(Nc4ccccc4N(CC)S(C)(=O)=O)c4cc[nH]c4n3)cc2F)CC1` [Example 50, N-ethyl-N-(2-((2-((4-(4-ethylpiperazin-1-yl)-3-fluorophenyl)amino)-7H-pyrrolo[2,3-d]pyrimidine-4-yl)amino)phenyl)methanesulfonamide], the GI50 is 26 nM. With `CN1CCN(c2ccc(Nc3nc(Nc4ccccc4N(C)S(C)(=O)=O)c4cc[nH]c4n3)nc2)CC1` [Example 29, N-methyl-N-(2-((2-((5-(4-methylpiperazin-1-yl)pyridin-2-yl)amino)-7H-pyrrolo[2,3-d]pyrimidine-4-yl)amino)phenyl)methanesulfonamide], the GI50 came to 626 nM. The figure for `CN1CCN(c2ccc(Nc3nc(Nc4ccccc4N(C)S(C)(=O)=O)c4c(Cl)c[nH]c4n3)cn2)CC1` [Example 59, N-(2-((5-chloro-2-((6-(4-methylpiperazin-1-yl)pyridin-3-yl)amino)-7H-pyrrolo[2,3-d]pyrimidine-4-yl)amino)phenyl)-N-methylmethanesulfonamide] is 41 nM; for `CN1CCC2(CCN(c3ccc(Nc4nc(Nc5ccccc5N(C)S(C)(=O)=O)c5cc[nH]c5n4)cc3F)CC2)C1` [Example 33, N-(2-((2-((3-fluoro-4-(2-methyl-2,8-diazaspiro[4.5]decan-8-yl)phenyl)amino)-7H-pyrrolo[2,3-d]pyrimidine-4-yl)amino)phenyl)-N-methylmethanesulfonamide] it is 31 nM. For `CN1CCN(c2ccc(Nc3nc(Nc4ccccc4N(C)S(C)(=O)=O)c4cc[nH]c4n3)cc2O)CC1` [Example 4, N-(2-((2-((3-hydroxy-4-(4-methylpiperazin-1-yl)phenyl)amino)-7H-pyrrolo[2,3-d]pyrimidine-4-yl)amino)phenyl)-N-methylmethanesulfonamide], the GI50 is 453 nM. In the case of `CN1CC2(CCN(c3ccc(Nc4nc(Nc5ccccc5N(C)S(C)(=O)=O)c5cc[nH]c5n4)cc3F)CC2)C1` [Example 34, N-(2-((2-((3-fluoro-4-(2-methyl-2,7-diazaspiro[3.5]nonan-7-yl)phenyl)amino)-7H-pyrrolo[2,3-d]pyrimidine-4-yl)amino)phenyl)-N-methylmethanesulfonamide], the GI50 was 6 nM. Consider `CN1CCC(Nc2ccc(Nc3nc(Nc4ccccc4N(C)S(C)(=O)=O)c4cc[nH]c4n3)cc2F)CC1` [Example 24, N-(2-((2-((3-fluoro-4-((1-methylpiperidin-4-yl)amino)phenyl)amino)-7H-pyrrolo[2,3-d]pyrimidine-4-yl)amino)phenyl)-N-methylmethanesulfonamide], for which the GI50 is 47 nM. For the compound `CN1CCN(c2ccc(Nc3nc(Nc4ccccc4N(C)S(C)(=O)=O)c4cn[nH]c4n3)cc2F)CC1` [Example 67, N-(2-((6-((3-fluoro-4-(4-methylpiperazin-1-yl)phenyl)amino)-1H-pyrazolo[3,4-d]pyrimidine-4-yl)amino)phenyl)-N-methylmethanesulfonamide], the GI50 is 254 nM.

In the case of `CN(c1ccccc1Nc1nc(Nc2ccc(N3CCOCC3)c(F)c2)nc2[nH]ccc12)S(C)(=O)=O` [Example 12, N-(2-((2-((3-fluoro-4-morpholinophenyl)amino)-7H-pyrrolo[2,3-d]pyrimidine-4-yl)amino)phenyl)-N-methylmethanesulfonamide], the GI50 was 4.2 nM. With `CCN1CCN(c2ccc(Nc3nc(Nc4ccccc4N(CC)S(=O)(=O)CC)c4cc[nH]c4n3)cc2F)CC1` [Example 52], the GI50 is 119 nM. To `CN1CCN(c2ccc(Nc3nc(Nc4ccccc4N(C)S(C)(=O)=O)c4cc[nH]c4n3)c(F)c2)CC1` [Example 3, N-(2-((2-((2-fluoro-4-(4-methylpiperazin-1-yl)phenyl)amino)-7H-pyrrolo[2,3-d]pyrimidine-4-yl)amino)phenyl)-N-methylmethanesulfonamide] belongs 157 nM; to `CN1CCN(c2ccc(Nc3nc(Nc4ccccc4N(C)S(C)(=O)=O)c4c(C#N)c[nH]c4n3)cc2F)CC1` [Example 61, N-(2-((5-cyano-2-((3-fluoro-4-(4-methylpiperazin-1-yl)phenyl)amino)-7H-pyrrolo[2,3-d]pyrimidine-4-yl)amino)phenyl)-N-methylmethanesulfonamide], 46 nM. To `CN(C)C1CCN(c2ccc(Nc3nc(Nc4ccccc4N(C)S(C)(=O)=O)c4cc[nH]c4n3)cc2F)CC1` [Example 21, N-(2-((2-((4-(4-(dimethylamino)piperidin-1-yl)-3-fluorophenyl)amino)-7H-pyrrolo[2,3-d]pyrimidine-4-yl)amino)phenyl)-N-methylmethanesulfonamide] belongs 17 nM; to `CC(C)S(=O)(=O)N(C)c1ccccc1Nc1nc(Nc2ccc(N3CCN(C)CC3)c(F)c2)nc2[nH]ccc12` [Example 47, N-(2-((2-((3-fluoro-4-(4-methylpiperazin-1-yl)phenyl)amino)-7H-pyrrolo[2,3-d]pyrimidine-4-yl)amino)phenyl)-N-methylpropan-2-sulfonamide], 49 nM.

Consider `CN1CCN(c2ccc(Nc3nc(Nc4ccccc4N(C)S(C)(=O)=O)c4cc[nH]c4n3)cc2F)CC1` [Example 7, N-(2-((2-((3-fluoro-4-(4-methylpiperazin-1-yl)phenyl)amino)-7H-pyrrolo[2,3-d]pyrimidine-4-yl)amino)phenyl)-N-methylmethanesulfonamide], for which the GI50 turned out to be 19 nM. The figure for `CN(c1ccccc1Nc1nc(Nc2ccc(N3CCN(C4COC4)CC3)c(F)c2)nc2[nH]ccc12)S(C)(=O)=O` [Example 19] is 112 nM. The figure for `Cc1c[nH]c2nc(Nc3ccc(N4CCN(C)CC4)c(F)c3)nc(Nc3ccccc3N(C)S(C)(=O)=O)c12` [Example 60, N-(2-((2-((3-fluoro-4-(4-methylpiperazin-1-yl)phenyl)amino)-5-methyl-7H-pyrrolo[2,3-d]pyrimidine-4-yl)amino)phenyl)-N-methylmethanesulfonamide] is 15 nM.

As for `CN1CCN(c2ccc(Nc3nc(Nc4ccccc4N(C4CC4)S(C)(=O)=O)c4cc[nH]c4n3)cc2F)CC1` [Example 45, N-cyclopropyl-N-(2-((2-((3-fluoro-4-(4-methylpiperazin-1-yl)phenyl)amino)-7H-pyrrolo[2,3-d]pyrimidine-4-yl)amino)phenyl)methanesulfonamide], the GI50 is 64 nM. The figure for `CN1CCN(c2ccc(Nc3nc(Nc4ccccc4N(C)S(C)(=O)=O)c4c(F)c[nH]c4n3)cc2F)CC1` [Example 62, N-(2-((5-fluoro-2-((3-fluoro-4-(4-methylpiperazin-1-yl)phenyl)amino)-7H-pyrrolo[2,3-d]pyrimidine-4-yl)amino)phenyl)-N-methylmethanesulfonamide] is 46 nM. The figure for `CN1CCN(c2ccc(Nc3nc(Nc4ccccc4N(C)S(=O)(=O)C4CC4)c4cc[nH]c4n3)cc2F)CC1` [Example 48, N-(2-((2-((3-fluoro-4-(4-methylpiperazin-1-yl)phenyl)amino)-7H-pyrrolo[2,3-d]pyrimidine-4-yl)amino)phenyl)-N-methylcyclopropanesulfonamide] is 30 nM. For `CN(c1ccccc1Nc1nc(Nc2ccc(N3CCN(CCO)CC3)c(F)c2F)nc2[nH]ccc12)S(C)(=O)=O` [Example 28, N-(2-((2-((2,3-difluoro-4-(4-(2-hydroxyethyl)piperazin-1-yl)phenyl)amino)-7H-pyrrolo[2,3-d]pyrimidine-4-yl)amino)phenyl)-N-methylmethanesulfonamide], the GI50 turned out to be 7 nM. The figure for `CN1CCN(c2ccc(Nc3nc(Nc4ccccc4N(C)S(C)(=O)=O)c4c(Cl)c[nH]c4n3)cc2F)CC1` [Example 57, N-(2-((5-chloro-2-((3-fluoro-4-(4-methylpiperazin-1-yl)phenyl)amino)-7H-pyrrolo[2,3-d]pyrimidine-4-yl)amino)phenyl)-N-methylmethanesulfonamide] is 7.9 nM. The figure for `CN1CCC(c2ccc(Nc3nc(Nc4ccccc4N(C)S(C)(=O)=O)c4cc[nH]c4n3)cc2F)CC1` [Example 20, N-(2-((2-((3-fluoro-4-(1-methylpiperidin-4-yl)phenyl)amino)-7H-pyrrolo[2,3-d]pyrimidine-4-yl)amino)phenyl)-N-methylmethanesulfonamide] is 37 nM. To `CN1CCN(c2ccc(Nc3nc(Nc4ccccc4N(C)S(C)(=O)=O)c4c(Cl)c[nH]c4n3)c(F)c2F)CC1` [Example 58, N-(2-((5-chloro-2-((2,3-difluoro-4-(4-methylpiperazin-1-yl)phenyl)amino)-7H-pyrrolo[2,3-d]pyrimidine-4-yl)amino)phenyl)-N-methylmethanesulfonamide] belongs 93 nM. Consider `CN1CCN(c2ccc(Nc3nc(Nc4ccccc4N(C)S(C)(=O)=O)c4nc[nH]c4n3)cc2F)CC1` [Example 66, N-(2-((2-((3-fluoro-4-(4-methylpiperazin-1-yl)phenyl)amino)-9H-purine-6-yl)amino)phenyl)-N-methylmethanesulfonamide], for which the GI50 is 63 nM. The figure for `CN1CCN(c2ccc(Nc3nc(Nc4ccccc4N(C)S(C)(=O)=O)c4cc[nH]c4n3)cc2)CC1` [Example 1, N-methyl-N-(2-((2-((4-(4-methylpiperazin-1-yl)phenyl)amino)-7H-pyrrolo[2,3-d]pyrimidine-4-yl)amino)phenyl)methanesulfonamide] is 3.1 nM; for `CC(C)N(c1ccccc1Nc1nc(Nc2ccc(N3CCN(C)CC3)c(F)c2)nc2[nH]ccc12)S(C)(=O)=O` [Example 44, N-(2-((2-((3-fluoro-4-(4-methylpiperazin-1-yl)phenyl)amino)-7H-pyrrolo[2,3-d]pyrimidine-4-yl)amino)phenyl)-N-isopropylmethanesulfonamide] it is 72 nM; for `CN(c1ccccc1Nc1nc(Nc2ccc(N3CCCCC3)c(F)c2)nc2[nH]ccc12)S(C)(=O)=O` [Example 22, N-(2-((2-((4-(piperidin-1-yl)-3-fluorophenyl)amino)-7H-pyrrolo[2,3-d]pyrimidine-4-yl)amino)phenyl)-N-methylmethanesulfonamide] it is 371 nM.
